Laboratory results taken from article PMC10115881, “Disrupting the α-synuclein-ESCRT interaction with a peptide inhibitor mitigates neurodegeneration in preclinical models of Parkinson’s disease” (Nature Communications, 2023).

What was measured:
cathepsin B = experiment: Cathepsin B fluorescence in rat cortical neurons; type: cell-based; details: A53T a-syn
Text: Pregnant rats (E17) of the Sprague-Dawley strain were purchased from Envigo. Embryos were surgically removed from the mothers and cortices dissected in Hanks Balanced salt solution (Gibco). The meninges were removed, and cells were dissociated using a papain dissociation system (Worthington) before being resuspended in Neurobasal medium A supplemented with antibiotic-antimycotic solution (Gibco), L-glutamine substitute (GlutaMAX™; Gibco) and factor B27 (Gibco). […]
After fixation, cells were permeabilized with 0.2% Triton-X-100 for 15 min, washed three times with PBS and then incubated with blocking solution (1% BSA, 22.52 mg/mL glycine, 0.1% Tween-20 in PBS or 0.4% saponin, 1% BSA, and 5% goat or donkey serum in PBS) for 1 h. […] Following another three washes with PBS, nuclei were counterstained with DAPI (ThermoFisher) and then coverslips were mounted on slides using Dako fluorescence mounting medium (Agilent) and sealed using clear nail varnish.
Confocal images of primary cortical neurons, iPSC-derived dopaminergic neurons, and LAMP1 staining within the SN were processed using Imaris software (Oxford instruments). […] Mean pixel intensity per GFP^+ cell (for experiments using GFP-tagged peptides) or RFP^+ cell (for experiments using RFP-tagged peptides) was calculated for a-syn or LAMP1 signal using the software’s surfaces module. […]

A53T a-syn oligomers = experiment: Split-YFP PCA/FACS screen of A53T a-syn oligomers; type: cell-based, human
Text: We used a lentiviral library of 50,549 7-mer peptides enriched in PPI motifs[13] on a green fluorescent protein (GFP) scaffold (Fig. 1A). We infected cells in a pooled format and the amino acid sequence of each peptide served as its own barcode. By using a low multiplicity of infection followed by puromycin selection, each infected cell expressed one unique GFP-peptide. We screened for peptides that reduced a-syn-mediated cytotoxicity or a-syn oligomers in parallel (Fig. 1A). To cause cytotoxicity relevant to PD, we induced proteostatic stress in HEK293 cells by inhibiting the proteasome with MG132 and overexpressing human WT a-syn associated with idiopathic PD in one screen or the more toxic mutant A53T a-syn associated with familial PD in a second screen. This combination of a-syn overexpression and pharmacological proteasome inhibition led to death of most cells, with only those that expressed a protective peptide surviving. By extracting genomic DNA from the surviving cells and amplifying the peptide coding sequences, we identified the protective peptides (Fig. 1A). To detect a-syn oligomers, we used a protein fragment complementation assay (PCA) of a-syn oligomerization in HEK293 cells. In this assay, human A53T a-syn was fused to either the C- or N-terminal half of yellow fluorescent protein (YFP). No fluorescence is detectable while a-syn exists in monomers but, when a-syn oligomerizes, the two halves of YFP come in close enough proximity to form a functional, spontaneously fluorescent protein. […] Our screens yielded 10 hits (Table S1). The hit with the most reads (i.e., the most abundant) was the same peptide in all screens: IPIQLKA (named PDpep1) (Table S1). We validated the cytoprotective effects of PDpep1 in HEK293 cells overexpressing WT or A53T a-syn (Figs. 1B, S1A), as well as its ability to reduce WT or A53T a-syn oligomers in a luciferase-based PCA[18]–[20] compared to a scrambled control peptide (Figs. 1C, S1B).
HEK293T cells (ATCC, CRL-3216) were maintained in DMEM supplemented with 10% FBS and 1% pen/strep/glutamine, and the appropriate selection antibiotics when required. Lentiviruses were made in a 15 cm dish format by transfecting packaging cells (HEK293T) with a three-plasmid system (expression vector, psPAX2 and pMD2.G) and using Polyjet DNA transfection reagent (FroggaBio, SL100688.1). Viral transduction of HEK293T cells were performed with a multiplicity of infection (MOI) of 0.3. Infected cells were selected in puromycin-containing medium to eliminate uninfected cells and three aliquots of cells were collected for sampling of the initial (T0) cell population. Cells were treated with MG132 at concentrations of 0, 10, 25, or 50 µM. For the cell viability screen, surviving cells were collected and gDNA was extracted for identification of peptide inhibitors of cell toxicity. For the inhibition of a-syn aggregation screen, a protein fragment complementation assay (PCA) was used by transfecting cells with split YFP-a-syn constructs following stable expression of the peptides. Cells were sorted based on their YFP fluorescence intensities with a FACSVantage SE cell sorter (BD Bioscience) and gDNA was extracted for identification of peptides.
Cells were harvested by trypsin treatment and centrifuged at 500 × g for 5 min. The pellet was resuspended in ice-cold PBS and centrifuged again. The pellet was then resuspended at a concentration of 4 × 10^6 cells/ml in the sorting buffer, which is PBS containing 100 Kunitz DNase I/ml, 10 μg/ml propidium iodide (Sigma), and 2% FBS. The cells were then sent through a 40 μm filter to remove large clumps and loaded into either a FACScan Flow Cytometer (BD Bioscience) for cell analysis or a FACSVantage SE cell sorter (BD Bioscience) for cell sorting. The cells with positive propidium iodide staining (i.e., dead cells) were first eliminated from the analysis. […]

Row | Substance | Effect on cathepsin B (cathepsin B) | Reads GFP High (A53T a-syn oligomers) | Reads GFP Inter (A53T a-syn oligomers) | Reads GFP Neg (A53T a-syn oligomers) | Reads Ratio (A53T a-syn oligomers)
1 | DEEIERQLKALG [PDpep1.3] | reduced to control levels |  |  |  | 
2 | IPIQLKA [PDpep1, initial screen hit peptide IPIQLKA] |  | 12 | 2853 | 15556 | 1,218.98
